Experimental data reported in patent US20250230155A1 (Vanderbilt University, priority 2021, published 2025).

Biological target: T1, human mAChR M4 (Homo sapiens, UniProt P08173)
T1 construct: expressed in transfected cells
T1 sequence (P08173 1-479): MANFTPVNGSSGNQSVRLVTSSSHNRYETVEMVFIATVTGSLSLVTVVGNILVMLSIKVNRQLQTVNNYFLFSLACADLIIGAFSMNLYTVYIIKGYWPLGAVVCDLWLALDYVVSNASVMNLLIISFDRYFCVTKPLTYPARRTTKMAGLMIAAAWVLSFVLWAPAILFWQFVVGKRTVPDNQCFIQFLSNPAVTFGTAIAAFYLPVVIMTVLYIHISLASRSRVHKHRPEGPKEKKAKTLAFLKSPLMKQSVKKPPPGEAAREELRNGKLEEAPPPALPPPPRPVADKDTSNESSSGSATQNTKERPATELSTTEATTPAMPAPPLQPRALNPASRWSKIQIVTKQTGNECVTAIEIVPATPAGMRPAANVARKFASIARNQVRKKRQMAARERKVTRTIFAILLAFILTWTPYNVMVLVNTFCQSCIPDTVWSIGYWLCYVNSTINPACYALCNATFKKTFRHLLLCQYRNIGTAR
Experiment: mAChR M4 cell-based functional assay (calcium mobilization, CHO-K1 hM4-Gqi5 cells)
Settings: for Emax at 30 µM: CHO-K1, % ACh maximum at 30 μM, human M4; for EC50: positive allosteric modulator activity, increase in the EC20 acetylcholine response, CHO-K1 hM4-Gqi5 cells, read-out: Human M4 EC50
Method: Human and rat M4 cDNAs, along with the chimeric G protein Gqi5, were transfected into Chinese hamster ovary (CHO-K1) cells purchased from the American Type Culture Collection using Lipofectamine2000. hM4-Gqi5 cells were grown in Ham's F-12 medium containing 10% heat-inactivated fetal bovine serum (FBS), 20 mM HEPES, 50 μg/mL G418 sulfate, and 500 μg/mL Hygromycin B. rM4-Ggi5 cells were grown in DiVEM containing 10% heat-inactivated FBS, 20 mM THEPES, 400 μμg/mL G418 sulfate, and 500 μμg/mL Hygromycin B.
For high throughput measurement of agonist-evoked increases in intracellular calcium, CHO-K1 cells stably expressing muscarinic receptors were plated in growth medium lacking G418 and hygromycin at 15,000 cells/20 μL/well in Greiner 384-well black-walled, tissue culture (TC)-treated, clear-bottom plates (VWR). Cells were incubated overnight at 37° C. and 5% CO2. The next day, cells were washed using an ELX 405 (BioTek) with assay buffer; the final volume was then aspirated to 20 μL. Next, 20 μL of a […] of Fluo-4/acetoxymethyl ester (Invitrogen, Carlsbad, CA), prepared as a 2.3 mM stock in DMSO and mixed in a 1:1 ratio with 10% (w/v) Pluronic F-127 and diluted in assay buffer, was added to the wells and the cell plates were incubated for 50 min at 37° C. and 5% C02. Dye was removed by washing with the ELX 405 and the final volume was aspirated to 20 μL. Compound master plates were formatted in an 11 point concentration-response curve (CRC) format (1:3 dilutions) in 100% DMSO with a starting concentration of 10 mM using a BRAVO liquid handler (Agilent). Test compound CRCs were then transferred to daughter plates (240 nL) using the Echo acoustic plate reformatter (Labcyte, Sunnyvale, CA) and then diluted into assay buffer (40 μL) to a 2× stock using a Thermo Fisher Combi (Thermo Fisher Scientific, Waltham, MA).
Calcium flux was measured using the Functional Drug Screening System (FDSS) 6000 or 7000 (Hamamatsu Corporation, Tokyo, Japan) as an increase in the fluorescent static ratio. Compounds were applied to cells (20 μL, 2×) using the automated system of the FDSS at 2-4 seconds into the protocol and the data were collected at 1 Hz. At 144 seconds, 10 μL of an EC20 concentration of the muscarinic receptor agonist acetylcholine was added (5×), followed by the addition of 12 μL of an EC80 concentration of acetylcholine at the 230 second time point (5×). Agonist activity was analyzed as a concentration-dependent increase in calcium mobilization upon compound addition. Positive allosteric modulator activity was analyzed as a concentration-dependent increase in the EC20 acetylcholine response. Antagonist activity was analyzed as a concentration-dependent decrease in the EC80 acetylcholine response. Concentration-response curves were generated using a four-parameter logistical equation in XLFit curve fitting software (IDBS, Bridgewater, NJ) for Excel (Microsoft, Redmond, WA) or Prism (GraphPad Software, Inc., San Diego, CA).
Compounds were synthesized as described above. Activity (EC50 and Emax) was determined in the mAChR M4 cell-based functional assay as described above and the data are shown in Table 2. The compound number corresponds to the compound numbers used in Table 1.

Compound | Emax at 30 µM [%] | EC50 [µM]
Cc1cc(C(=O)NCc2cccnc2)cnc1N1CCc2ncc(-c3cn(C)nc3C)cc2C1 [Example 457, 6-(3-(1,3-dimethyl-1H-pyrazol-4-yl)-7,8-dihydro-1,6-naphthyridin-6(5H)-yl)-5-methyl-N-(pyridin-3-ylmethyl)nicotinamide] | 85 | 0.576
Cc1nc(Cl)c(C)c(N2CCc3ncc(Oc4ccc5c(cnn5C)c4)cc3C2)n1 [compound 208, 6-(6-chloro-2,5-dimethyl-pyrimidin-4-yl)-3-(1-methylindazol-5-yl)oxy-7,8-dihydro-5H-1,6-naphthyridine] | 76 | 0.304
Cc1cc(C(=O)NCc2ccc(S(C)(=O)=O)cc2)cnc1N1CCc2ncccc2C1 [compound 143, 6-(7,8-dihydro-5H-1,6-naphthyridin-6-yl)-5-methyl-N-[(4-methylsulfonylphenyl)methyl] pyridine-3-carboxamide] | 53 | 5.83
Cc1ccc(F)c(Nc2cnc3c(c2)CN(c2ncc(C#N)cc2C)CC3)c1 [compound 115, 6-[3-(2-fluoro-5-methyl-anilino)-7,8-dihydro-5H-1,6-naphthyridin-6-yl]-5-methyl-pyridine-3-carbonitrile] | 92 | 0.995
Cc1cc(C(=O)NCc2cscn2)cnc1N1CCc2ncc(-c3ccc(C4CC4)nc3)cc2C1 [Example 484, 6-(3-(6-cyclopropylpyridin-3-yl)-7,8-dihydro-1,6-naphthyridin-6(5H)-yl)-5-methyl-N-(thiazol-4-ylmethyl)nicotinamide] | 88 | 0.176
Cc1cc(C(=O)NCc2ccc3ncnn3c2)cnc1N1CCc2ncc(-c3cn(C)nc3C)cc2C1 [Example 479, N-([1,2,4]triazolo[1,5-a]pyridin-6-ylmethyl)-6-(3-(1,3-dimethyl-1/- pyrazol-4-yl)-7,8-dihydro-1,6-naphthyridin-6(5H)-yl)-5-methylnicotinamide] | 57 | 0.886
Cc1cc(C(=O)NC2CC(F)(F)C2)cnc1N1CCc2ncc(-c3cn(C)nc3C)cc2C1 [Example 476, N-(3,3-difluorocyclobutyl)-6-(3-(1,3-dimethyl-1H-pyrazol-4-yl)-7,8-dihydro-1,6-naphthyridin-6(5H)-yl)-5-methylnicotinamide] | 67 | 0.752

The next compounds have a lower EC50 than those just listed; values first:

Emax at 30 µM [%] | EC50 [µM] | Compound
103 | 0.11 | Cc1cc(C(=O)NCc2nccs2)cnc1N1CCc2ncc(-c3cn(C)nc3C)cc2C1 [compound 170, 6-[3-(1,3-dimethylpyrazol-4-yl)-7,8-dihydro-5H-1,6-naphthyridin-6-yl]-5-methyl-N-(thiazol-2-ylmethyl)pyridine-3-carboxamide]
93 | 0.018 | Cc1cc(C(=O)N2CC(C(F)F)C2)nnc1N1CCc2ncc(N3CCCn4nccc43)cc2C1 [Example 524, (3-(difluoromethyl)azetidin-1-yl)(6-(3-(6,7-dihydropyrazolo[1,5-a]pyrimidin-4(5H)-yl)-7,8-dihydro-1,6-naphthyridin-6(5H)-yl)-5-methylpyridazin-3-yl)methanone]
94 | 0.026 | Cc1cc(C#N)cnc1N1CCc2ncc(N3CCCn4nccc43)cc2C1 [Example 314, 6-(3-(6,7-dihydropyrazolo[1,5-a]pyrimidin-4(5H)-yl)-7,8-dihydro-1,6-naphthyridin-6(5H)-yl)-5-methylnicotinonitrile]
101 | 0.036 | Cc1cnccc1CNC(=O)c1nnc(N2CCc3ncc(C(F)(F)F)cc3C2)c(C)c1C [Example 464, 4,5-dimethyl-N-((3-methylpyridin-4-yl)methyl)-6-(3-(trifluoromethyl)-7,8-dihydro-1,6-naphthyridin-6(5H)-yl)pyridazine-3-carboxamide]
98 | 0.065 | Cc1nc(Cl)c(C)c(N2CCc3ncc(Nc4ccnn4C)cc3C2)n1 [compound 212, 6-(6-chloro-2,5-dimethylpyrimidin-4-yl)-N-(1-methyl-1H-pyrazol-5-yl)-5,6,7,8-tetrahydro-1,6-naphthyridin-3-amine]
